These results are taken from patent US20210052589A1, “COMPOUNDS FOR TREATING ALZHEIMER'S DISEASE” (Amabiotics, priority 2018, published 2021).

The test system of one assay is TNF-α. Description: TNFa release in a culture of cortical neurons and microglia after Aβ1-42 injury (ELISA). The class given is cell-based, rat. Particulars: for TNFa (% of vehicle group): control 100.00, Aβ1-42 alone 126.75; for level of TNFα (in words): Aβ1-42 (5 μM). The protocol: (§1) Rat cortical neurons are cultured as described by Callizot et al., (2013) with modifications. Briefly pregnant female rat (Wistar) of 15 days of gestation are killed. Foetuses are collected and immediately placed in ice-cold L15 Leibovitz medium with a 2% penicillin (10,000 U/mL) and streptomycin (10 mg/ml) solution (PS) and 1% bovine serum albumin (BSA). Cortex are treated for 20 min at 37° C. with a trypsin- EDTA solution at a final concentration of 0.05% trypsin and 0.02% EDTA. The dissociation is stopped by addition of Dulbecco's modified Eagle's medium (DMEM) with 4.5 g/L of glucose, containing DNAse I grade II (final concentration 0.5 mg/ml) and 10% fetal calf serum (FCS). Cells are mechanically dissociated by three forced passages through the tip of a 10-ml pipette. Cells are then centrifuged at 515×g for 10 min at 4° C. The supernatant is discarded, and the pellet is resuspended in a defined culture medium consisting of Neurobasal medium with a 2% solution of B27 supplement, 2 mmol/litter of L-glutamine, 2% of PS solution, 10 ng/mL of brain-derived neurotrophic factor (BDNF), 2% of heat-inactivated horse serum, 2% of heat-inactivated FCS, 1 g/L of glucose, 1 mM of sodium pyruvate, and 100 μM of non-essential amino acids. Viable cells are counted in a Neubauer cytometer, using the trypan blue exclusion test. The cells are seeded at a density of 45,000 per well in 96-well plates (for immunostaining) precoated with poly-L-lysine and are cultured at 37° C. in an air (95%)-CO2 (5%) incubator. For 96 wells plates, only 60 wells are used. The wells of first and last lines and columns are not used (to avoid the edge effect) and are filled with sterile water. The medium is changed every 2 days.
(§2) On day 10 of culture, queuine is dissolved in the culture medium and pre-incubated with primary cortical neurons for 24H, before Aβ1-42 exposure. Then on day 11 of culture, the cortical neurons are intoxicated with AB solutions. The Aβ1-42 preparation is done following the procedure described by Callizot et al., (2013). Briefly, Aβ1-42 peptide are dissolved in the defined culture medium mentioned above, at an initial concentration of 40 μmol/L. This solution is gently agitated for 3 days at 37° C. in the dark and immediately used after being properly diluted in culture medium to the concentration used (5 μM, 0.5μM oligomers).
(§3) Aβ1-42 preparation is added to a final concentration of 5μM (0.5 μM oligomers, ABO) diluted in control medium in presence of queuine, for 72 hours.
72 hours after Aβ1-42 application, the cell culture supernatant are collected cytokine quantification (e.g. TNFα) and the cortical neurons are fixed by a cold solution of ethanol (95%) and acetic acid (5%) for 5 min at −20° C. After permeabilization with 0.1% of saponin, cells are incubated for 2 hours with: • a) chicken polyclonal antibody antimicrotubule-associated-protein 2 (MAP-2) at dilution of 1/1000 in PBS containing 1% fetal calf serum and 0.1% of saponin (this antibody stains specifically cell bodies and neurites, allowing study of neuronal cell death and neurite network). • b) mouse monoclonal anti-tau phosphor (Thr212, Ser214) at the dilution of 1/100 in PBS containing 1% foetal calf serum and 0.1% of saponin. • c) rabbit polyclonal antibody anti-SIRP alpha/CD172a at dilution of 1/400 in PBS containing 1% fetal calf serum and 0.1% of saponin (this antibody stains specifically the microglia and is allow to evaluate the activation of the microglial cells).
In order to assess the activation of microglia in the cell culture, the levels of TNF-α are quantified in cell culture supernatant after 72h (end of the culture) by ELISA.
For orientation: In an ELISA, binding on a coated surface is turned into a signal by an enzyme label.

For another assay, the system named is Tau. The assay is described as follows: Hyperphosphorylation of Tau in neuron cytoplasm (AT100, overlapping Tau/MAP-2) after Aβ1-42 intoxication. It counts as cell-based, rat. The protocol: as §1, §2, §3
Each compound is tested on 1 culture in a 96 well plate (6 wells per conditions). For 96 wells plates, only 60 wells are used. The wells of first and last lines and columns are not used (to avoid the edge effect) and are filled with sterile water. Queuine is added 24h before Aβ1-42 application. The following conditions are assessed:
(§4) 72 hours after Aβ1-42 application, the cell culture supernatant are collected cytokine quantification (e.g. TNFα) and the cortical neurons are fixed by a cold solution of ethanol (95%) and acetic acid (5%) for 5 min at −20° C. […]

The subject of assay [1] is Rat cortical neurons. Description: Total neurite network (length of MAP-2 positive neurite) after Aβ1-42 intoxication. It counts as cell-based. The protocol:
as §1
as §2, with “oligomers). […]” for “oligomers).”
(§5) Each compound is tested on 1 culture in a 96 well plate (6 wells per conditions). […] The following conditions are assessed:
as §4

Assay [2] deals with Rat cortical neurons. The assay is described as follows: Neuron survival (number of MAP-2 positive neurons) after Aβ1-42 intoxication. It counts as cell-based. Particulars: for survival of neurons: p<0.05. As to the method: as §1
as §2, with “oligomers). […]” for “oligomers).”
as §5, §4

The mark [3] stands for this setting: queuine 300 nM added 24h before Aβ1-42 (5 μM, 72 H), p<0.05.
Setting [4] is: queuine 1 μM added 24h before Aβ1-42 (5 μM, 72 H), p<0.05.
[5] abbreviates: queuine 3 μM added 24h before Aβ1-42 (5 μM, 72 H), p<0.05.
The mark [6] stands for this setting: BDNF 50 ng/ml, Aβ1-42 (5 μM, 72 H).

Take “7-(3,4-trans-4,5-cis-dihydroxy-1-cyclopenten-3-ylaminomethyl)-7-deazaguanine [queuine]”: the “TNFa (% of vehicle group)” value was 105.54 % of vehicle group in the assay with TNF-α (Aβ1-42 (5 μM, 72 H) + queuine (300 nM)); 87.33 % of vehicle group in the assay with TNF-α (Aβ1-42 (5 μM, 72 H) + queuine (1 μM)); 93.32 % of vehicle group in the assay on TNF-α (Aβ1-42 (5 μM, 72 H) + queuine (3 μM)). In addition, the “level of TNFα (in words)” value is on record as “restores the level of TNFα” in the assay with TNF-α (queuine 300 nM, p<0.05); “restores the level of TNFα” with TNF-α (queuine 1 μM, p<0.05); “restores the level of TNFα” with TNF-α (queuine 3 μM, p<0.05). Also, the Tau hyperphosphorylation result in the assay with Tau (queuine 100 nM added 24h before Aβ1-42 (5 μM, 72 H), p<0.05) is given as “restores the level of hyperphosphorylation of Tau”; in the assay with Tau (setting [3]), “restores the level of hyperphosphorylation of Tau”; with Tau (setting [4]) it was “restores the level of hyperphosphorylation of Tau”; in the assay on Tau (setting [5]), “restores the level of hyperphosphorylation of Tau”. In addition, the neurite network entry with Rat cortical neurons [1] (setting [3]), in the assay with Rat cortical neurons [1] (setting [4]) and in the assay with Rat cortical neurons [1] (setting [5]) was “significantly restores the neurite network” in each case. The survival of neurons entry in the assay with Rat cortical neurons [2] (queuine 100 nM added 24h before Aβ1-42 (5 μM, 72 H)) was “significantly restores the survival of neurons”; with Rat cortical neurons [2] (queuine 300 nM added 24h before Aβ1-42 (5 μM, 72 H)) it was “significantly restores the survival of neurons”; in the assay on Rat cortical neurons [2] (queuine 1 μM added 24h before Aβ1-42 (5 μM, 72 H)), “significantly restores the survival of neurons”.

B1: BDNF: brain-derived neurotrophic factor, used at 50 ng/ml as positive control and reference compound (protein, UniProt P23560 19-247, looked up)
Neurotrophic factor BDNF …: APMKEANIRGQGGLAYPGVRTHGTLESVNGPKAGSRGLTSLADTFEHVIEELLDEDQKVRPNEENNKDADLYTSRVMLSSQVPLEPPLLFLLEEYKNYLDAANMSMRVRRHSDPARRGELSVCDSISEWVTAADKKTAVDMSGGTVTVLEKVPVSKGQLKQYFYETKCNPMGYTKEGCRGIDKRHWNSQCRTTQSYVRALTMDSKKRIGWRFIRIDTSCVCTLTIKRGR
Take B1: the “TNFa (% of vehicle group)” value in the assay with TNF-α (Aβ1-42 (5 μM, 72 H) + BDNF (50 ng/ml)) was 102.14 % of vehicle group. Also, the “level of TNFα (in words)” value in the assay with TNF-α (BDNF 50 ng/ml) was “decreases the level of TNFα”. For the same molecule, the Tau hyperphosphorylation result with Tau (setting [6]) is recorded as “decreases Tau hyperphosphorylation”. Moreover, the neurite network result in the assay on Rat cortical neurons [1] (setting [6]) was “restores the neurite network”. Further, in the assay on Rat cortical neurons [2] (setting [6]), the “level neuronal staining for MAP-2 (number of cortical neurons)” value is given as “restores the level neuronal staining for MAP-2”.
